*1 amine or outer side, *2 acyl side, *3 side chain or, on linkers, in order; H or OH if unused. Where a SMILES comes first, the peptide text is derived from it. Bridges are numbered along the chain shown (N, C = ends). [ ]: non-standard residue; d: D form. The star is where a group is joined. ξ: configuration not given here. X11 = CNC(=O)c1ccc(CCN(CC(=O)[*:2])[*:1])cc1OC; NMePhe(3-Cl) = CN[C@@H](Cc1cccc(Cl)c1)C(=O)O; X12 = O=C([C@H](CCCC(O)C(F)(F)F)N[*:1])[*:2]; Ala(4-thiazolyl) = N[C@@H](Cc1cscn1)C(=O)O; Tyr(3-F) = N[C@@H](Cc1ccc(O)c(F)c1)C(=O)O; NMehPhe = CN[C@@H](CCc1ccccc1)C(=O)O; Propyl(2,2-Me2,3-OH) = CC(C)(CO)C*; NMeF = CN[C@@H](Cc1ccccc1)C(=O)O; NMeξIle = CC[C@H](C)C(NC)C(=O)O; Butyl(3-Me,3-OH) = CC(C)(O)CC*; NMeL = CN[C@@H](CC(C)C)C(=O)O; ξNMeF = CNC(Cc1ccccc1)C(=O)O; ξIle = CC[C@H](C)C(N)C(=O)O; NMeAbu = CC[C@H](NC)C(=O)O; NMeA = CN[C@@H](C)C(=O)O; Piperidide = C1CCN(*)CC1; CH2CONHMe = CNC(=O)C*; NBuGly = CCCCNCC(=O)O; NPrGly = CCCNCC(=O)O; ξV = CC(C)C(N)C(=O)O; X3 = C[C@H](O)C*; Sar = CNCC(=O)O; tBu = CC(C)(C)*
Assay: in vitro
Conditions: human, Caco-2, Caco-2 (cm/sec)

Compound | Papp [×10⁻⁶ cm/s]
CC(C)C[C@@H]1NC(=O)[C@H](CCc2ccccc2)N(C)C(=O)[C@@H](C(C)C)NC(=O)C[C@@H](C(=O)N2CCCCC2)NC(=O)[C@H](CC(C)C)N(C)C(=O)[C@H](Cc2ccccc2)N(C)C(=O)[C@H](COCCC(C)(C)O)NC(=O)[C@H](CC(C)C)N(C)C(=O)CN(C)C(=O)[C@H]([C@@H](C)O)NC(=O)[C@H](CC(C)C)N(C)C1=O [AP60] ([dV][NMehPhe]L[NMeL]T[Sar][NMeL]S(Butyl(3-Me,3-OH))[NMeF][NMeL]D-Piperidide; lactam N-11) | 1
CC[C@H](C)[C@@H]1NC(=O)[C@H](CC(C)C)N(C)C(=O)[C@@H](C)NC(=O)C[C@@H](C(=O)N2CCCCC2)NC(=O)[C@H](CC(C)C)N(C)C(=O)[C@H](Cc2ccccc2)N(C)C(=O)[C@H](COC(C)(C)C)NC(=O)[C@H](CC(C)C)N(C)C(=O)[C@H](CC)N(C)C(=O)[C@H]([C@@H](C)O)NC(=O)CN(CCc2ccc(C(=O)NC)c(OC)c2)C1=O [AP222] ([dA][NMeL]I[X11]T[NMeAbu][NMeL]S(tBu)[NMeF][NMeL]D-Piperidide; lactam N-11) | 0.31
CCCN1CC(=O)N(C)[C@@H](Cc2cccc(Cl)c2)C(=O)N(C)[C@@H](CC(C)C)C(=O)N[C@@H](COC[C@H](C)O)C(=O)N(C)[C@@H](CC(C)C)C(=O)N[C@H](C(=O)N2CCCCC2)CC(=O)N(C)CC(=O)N(C)[C@@H](Cc2ccccc2)C(=O)NC([C@@H](C)CC)C(=O)N(C)[C@@H](CC(C)C)C(=O)N[C@@H]([C@@H](C)O)C1=O (stereo partly drawn) [AP68] ([Sar][NMeF][ξIle][NMeL]T[NPrGly][NMePhe(3-Cl)][NMeL]S(X3)[NMeL]D-Piperidide; lactam N-11) | 0.24
CC(C)C[C@@H]1NC(=O)[C@H](CC(C)C)N(C)C(=O)[C@H](Cc2ccccc2)N(C)C(=O)CN(C)C(=O)[C@H]([C@@H](C)O)NC(=O)[C@H](CC(C)C)N(C)C(=O)[C@H](Cc2ccc(O)c(F)c2)NC(=O)[C@H](CC(C)C)N(C)C(=O)CN(C)C(=O)C[C@@H](C(=O)N2CCCCC2)NC(=O)[C@H](CC(C)C)N(C)C1=O [pd123] ([Sar][NMeL][Tyr(3-F)][NMeL]T[Sar][NMeF][NMeL]L[NMeL]D-Piperidide; lactam N-11) | 0.44
CCCCN1CC(=O)N(C)[C@@H](CC(C)C)C(=O)N[C@@H](COCC(C)(C)CO)C(=O)N(C)[C@@H](Cc2ccccc2)C(=O)N(C)[C@@H](CC(C)C)C(=O)N[C@H](C(=O)N2CCCCC2)CC(=O)N[C@H](C(C)C)C(=O)N(C)C(Cc2ccccc2)C(=O)N[C@@H](CC(C)C)C(=O)N(C)[C@@H](CC(C)C)C(=O)N[C@@H]([C@@H](C)O)C1=O (stereo partly drawn) [AP126] ([dV][ξNMeF]L[NMeL]T[NBuGly][NMeL]S(Propyl(2,2-Me2,3-OH))[NMeF][NMeL]D-Piperidide; lactam N-11) | 0.14

Same assay, conditions: human, Caco-2, Caco-2 (cm/sec) Papp

Compound | Papp [×10⁻⁶ cm/s]
CC(C)C[C@@H]1NC(=O)[C@H](CC(C)C)N(C)C(=O)[C@H](CC(C)C)N(C)C(=O)CNC(=O)[C@H](Cc2ccccc2)N(C)C(=O)[C@H](Cc2cscn2)NC(=O)[C@H](CC(C)C)N(C)C(=O)[C@H](Cc2ccccc2)NC(=O)[C@H](C)NC(=O)C[C@@H](C(=O)N(C)[C@@H](Cc2ccccc2)C(=O)N[C@@H](C)C(=O)N2CCCCC2)NC1=O [pd235] (AF[NMeL][Ala(4-thiazolyl)][NMeF]G[NMeL][NMeL]LD[NMeF]A-Piperidide; lactam N-10) | 0.1
CC(C)C[C@@H]1NC(=O)[C@H](Cc2ccccc2)N(C)C(=O)[C@H](CC(C)C)N(C)C(=O)[C@H](Cc2ccccc2)NC(=O)[C@H](C)NC(=O)C[C@@H](C(=O)N2CCCCC2)NC(=O)[C@H](Cc2ccccc2)N(C)C(=O)CN(C)C(=O)[C@H](Cc2ccccc2)NC(=O)[C@H](CC(C)C)N(C)C(=O)[C@H]([C@@H](C)O)NC1=O [pd244] (AF[NMeL][NMeF]LT[NMeL]F[Sar][NMeF]D-Piperidide; lactam N-11) | 0.045

Same assay, conditions: human, Caco-2, Caco-2 (membrane permeability)

Compound | Papp [×10⁻⁶ cm/s]
CCCCN1CC(=O)N(C)[C@@H](CC(C)C)C(=O)N[C@@H](COCC(=O)NC)C(=O)N(C)[C@@H](CCc2ccccc2)C(=O)N(C)[C@@H](CC(C)C)C(=O)N[C@H](C(=O)N2CCCCC2)CC(=O)N[C@H](CC(C)C)C(=O)N(C)[C@@H](CC(C)C)C(=O)N[C@@H](Cc2ccccc2)C(=O)N(C)[C@@H](CC(C)C)C(=O)N[C@@H]([C@@H](C)O)C1=O [Compound I02] ([dL][NMeL]F[NMeL]T[NBuGly][NMeL]S(CH2CONHMe)[NMehPhe][NMeL]D-Piperidide; lactam N-11) | 0.052
CCCN1CC(=O)N(C)[C@@H](CC(C)C)C(=O)N[C@H](C(=O)N2CCCCC2)CC(=O)N(C)[C@@H](CC(C)C)C(=O)N[C@@H](Cc2ccccc2)C(=O)N(C)[C@@H](CC(C)C)C(=O)N(C)[C@@H](CC(C)C)C(=O)N[C@@H](COCC(=O)NC)C(=O)N(C)[C@@H](CCc2ccccc2)C(=O)N(C)[C@@H](CC(C)C)C(=O)N[C@@H]([C@@H](C)O)C1=O [Compound I04] ([NMeL]F[NMeL][NMeL]S(CH2CONHMe)[NMehPhe][NMeL]T[NPrGly][NMeL]D-Piperidide; lactam N-11) | 0.55
CC[C@H](C)C1C(=O)NC(C(C)C)C(=O)N(C)CC(=O)N(C)[C@@H](CC(C)C)C(=O)N[C@H](C(=O)N2CCCCC2)CC(=O)N(C)[C@@H](C)C(=O)N[C@@H](CCCC(O)C(F)(F)F)C(=O)N(C)[C@@H](CC(C)C)C(=O)N(C)[C@@H](Cc2ccccc2)C(=O)N[C@@H](CC(C)C)C(=O)N(C)[C@@H](Cc2ccccc2)C(=O)N1C (stereo partly drawn) [Compound D15] ([NMeA][X12][NMeL][NMeF]L[NMeF][NMeξIle][ξV][Sar][NMeL]D-Piperidide; lactam N-11) | 0.61
